According to US20140179664A1, “Heterocyclyl Pyrimidine Analogues As JAK Inhibitors” (Cellzome Limited, priority 2011, published 2014):

Biological target: T1, JAK3 (Homo sapiens, UniProt P52333)
T1 construct: endogenous in cells; host or cells: Molt4 (ATCC CRL-1582) and Ramos (ATCC CRL-1596), mixed lysate 1:2
T1 sequence (P52333 1-1124): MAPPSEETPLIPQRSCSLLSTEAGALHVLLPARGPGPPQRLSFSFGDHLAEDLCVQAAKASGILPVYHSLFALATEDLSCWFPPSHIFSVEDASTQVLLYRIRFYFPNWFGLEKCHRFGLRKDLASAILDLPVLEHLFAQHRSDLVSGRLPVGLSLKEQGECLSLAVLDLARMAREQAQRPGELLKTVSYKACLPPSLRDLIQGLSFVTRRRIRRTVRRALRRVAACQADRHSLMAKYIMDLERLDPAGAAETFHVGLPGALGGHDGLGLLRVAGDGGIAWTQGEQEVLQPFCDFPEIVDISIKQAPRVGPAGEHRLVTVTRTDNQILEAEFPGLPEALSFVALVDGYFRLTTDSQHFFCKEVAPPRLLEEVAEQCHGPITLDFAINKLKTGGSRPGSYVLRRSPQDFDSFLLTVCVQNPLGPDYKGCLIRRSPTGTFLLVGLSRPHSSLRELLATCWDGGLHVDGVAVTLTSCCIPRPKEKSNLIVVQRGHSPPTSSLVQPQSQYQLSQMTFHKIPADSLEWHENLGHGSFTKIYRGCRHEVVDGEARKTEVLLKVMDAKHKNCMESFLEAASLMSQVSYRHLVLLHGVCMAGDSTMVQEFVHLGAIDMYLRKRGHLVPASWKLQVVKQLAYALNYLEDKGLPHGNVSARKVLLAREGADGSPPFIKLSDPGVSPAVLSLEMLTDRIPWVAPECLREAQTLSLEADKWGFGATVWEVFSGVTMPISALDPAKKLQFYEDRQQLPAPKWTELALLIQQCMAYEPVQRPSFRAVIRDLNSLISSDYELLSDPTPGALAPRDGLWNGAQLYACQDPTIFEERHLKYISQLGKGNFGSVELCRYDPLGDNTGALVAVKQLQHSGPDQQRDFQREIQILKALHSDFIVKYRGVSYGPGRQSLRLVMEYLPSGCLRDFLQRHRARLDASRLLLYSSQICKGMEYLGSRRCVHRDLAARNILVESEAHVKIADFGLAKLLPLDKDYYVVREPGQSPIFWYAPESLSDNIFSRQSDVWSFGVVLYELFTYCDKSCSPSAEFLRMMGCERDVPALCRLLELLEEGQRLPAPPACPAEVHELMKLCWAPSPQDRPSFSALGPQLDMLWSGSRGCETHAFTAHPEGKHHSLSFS
Assay: Kinobeads assay, JAK3
Type: binding
Details: mixed Molt4/Ramos lysate, read-out: Inhibition values (IC50) JAK3
In short: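 Mixed Molt4/Ramos lysate (1:2, 10 mg/mL protein) was incubated 3 h in the cold with the immobilized aminopyrido-pyrimidine affinity matrix and compound, 9-step 1:3 dilutions. Bead-bound kinases were eluted and quantified by antibody dot blot with infrared detection. IC50s are from dose-response curves.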

Row | SMILES | IC50 [nM]
1 | Cn1cc(Nc2ncc(F)c(N[C@H](CO)c3ccccc3)n2)cn1 [Compound 3] | 100 to 1000
2 | Cn1cc(Nc2ncc(Cl)c(N[C@H](CO)c3cccc(F)c3)n2)cn1 [Compound 85] | < 100
3 | OCCn1cc(Nc2ncc(Cl)c(N[C@H](CO)c3cccc(F)c3)n2)cn1 [Compound 86] | < 100
4 | NC(=O)Cn1cc(Nc2ncc(Cl)c(N[C@H](CO)c3cccc(F)c3)n2)cn1 [Compound 87] | < 100
5 | OC[C@@H](Nc1nc(Nc2cn[nH]c2)ncc1Cl)c1cccc(F)c1 [Compound 88] | < 100
6 | CN(C)CCNC(=O)Cn1cc(Nc2ncc(Cl)c(N[C@H](CO)c3ccccc3)n2)cn1 [Compound 89] | < 100
7 | CN(C)CCCNC(=O)Cn1cc(Nc2ncc(Cl)c(N[C@H](CO)c3ccccc3)n2)cn1 [Compound 90] | < 100
8 | Cn1cc(Nc2ncc(Cl)c(N[C@H](CO)c3cccnc3)n2)cn1 [Compound 91] | < 100
9 | OCCn1cc(Nc2ncc(Cl)c(N[C@H](CO)c3cccnc3)n2)cn1 [Compound 92] | < 100
10 | OCCn1cc(Nc2ncc(Cl)c(NC(CO)c3cccc(Br)c3)n2)cn1 (stereo not shown) [Compound 93] | 100 to 1000
